Test results: paper PMC7068051, “Thermal stability, ligand binding and allergenicity data of Mus m 1.0102 allergen and its cysteine mutants” (Data in Brief, 2020)
Numbering of substitutions follows the chain as printed.

Experiments:
Assay in all cases: direct fluorescence titration (ex […] nm, em […] nm), nonlinear regression
Assay type in all cases: binding
Mus m 1.0102 [1] = target: T1, Mus m 1.0102 (Mus musculus, UniProt P11589, C156A/C175A); settings: 20 nM protein, Tris-HCl 10 mM pH 7.2, 25 °C; hydrophobic pocket
T1 construct: gene Mup2; recombinant lipocalin allergen
T1 sequence (P11589 19-180 C156A/C175A): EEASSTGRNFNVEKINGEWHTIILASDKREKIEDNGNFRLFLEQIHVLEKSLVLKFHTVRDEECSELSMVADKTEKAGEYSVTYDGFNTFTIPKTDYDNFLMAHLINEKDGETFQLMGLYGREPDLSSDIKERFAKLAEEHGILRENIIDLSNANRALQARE

Mus m 1.0102 [2] = target: T2, Mus m 1.0102 (Mus musculus, UniProt P11589, C156A); settings: 20 nM protein, Tris-HCl 10 mM pH 7.2, 25 °C; hydrophobic pocket
T2 construct: gene Mup2; recombinant lipocalin allergen
T2 sequence (P11589 19-180 C156A): T1 sequence (P11589 19-180 C156A/C175A) with A157C

Mus m 1.0102 [3] = target: T3, Mus m 1.0102 (Mus musculus, UniProt P11589, C175A)
T3 construct: gene Mup2; recombinant lipocalin allergen
T3 sequence (P11589 19-180 C175A): T1 sequence (P11589 19-180 C156A/C175A) with A138C

Mus m 1.0102 [4] = target: T4, Mus m 1.0102 (Mus musculus, UniProt P11589); settings: 20 nM protein, Tris-HCl 10 mM pH 7.2, 25 °C; hydrophobic pocket
T4 construct: gene Mup2; recombinant lipocalin allergen
T4 sequence (P11589 19-180): T1 sequence (P11589 19-180 C156A/C175A) with A138C, A157C

## c1ccc(Nc2cccc3ccccc23)cc1 [N-Phenyl-1-naphthylamine]
Mus m 1.0102 [1]
  Kd: 45.2 ± 4 nM
Mus m 1.0102 [2]
  Kd: 33.8 ± 6.4 nM
Mus m 1.0102 [3]
  Kd: 85.5 ± 13.7 nM
Mus m 1.0102 [4]
  Kd: 25 ± 1.5 nM
